Measurements reported in patent US20240108601A1, “TREATMENT OF MENTAL DISORDERS” (GH Research Ireland Limited, priority 2022, published 2024).
Like-named read-outs stand apart in the source and are kept apart here.

Columns and labels:
human plasma protein = assay: Plasma binding of 5-MIAA; format: in vitro ADME
Experimental: (§1) Binding to human plasma protein was determined. Reported are the unbound fraction (fu) for three replicates as well as the mean unbound fraction, the standard deviation and the mean % recovery (Table 8).

[1] = LC-MS/MS of 5-MeO-DMT, bufotenine and 5-MIAA in urine, serum and breastmilk of lactating PPD patient; infant exposure estimates; conditions: for Breastmilk concentration / Serum concentration / Urine concentration: second patient
Excerpt: When determining the potential impact of maternal drug administration on a breastfed infant, it is standard practice to calculate the Relative Infant Dose (RID) (Bennett, P. N., and L. J. Notarianni. “Risk from drugs in breast milk: an analysis by relative dose.” Br J Clin Pharmacol 42.5 (1996): P673-4). The RID is the dosage (in μg/kg/day) the infant is exposed to by the intake of breast milk, divided by the dosage (in μg/kg/day) the mother receives.
Using estimates for daily intake of breast milk and the number of feeds as well as the measured breast milk concentrations the exposure of the infant can be determined.
For example, a published estimate for daily intake of breast milk as a function of infant weight is 150 ml/kg/day. To model the exposure, it is assumed that an infant of 5 kg is fed three times over 24 hours, receiving 250 ml breast milk each time.
The second patient was lactating, and, per the clinical trial protocol, breastmilk samples were collected pre-dosing and at multiple timepoints after administration of the last dose. […] Similar analyses were carried out on patient serum and urine samples.

[2] = system: human hepatocytes (Hμrel HumanPool co-culture); assay: Metabolic stability in Hμrel human hepatocyte co-culture
human hepatocytes = assay: Metabolite identification in human hepatocyte suspension; conditions: 5-MeO-DMT free base 10 μM, incubated up to 120 minutes
Experimental: For incubations with cryopreserved hepatocytes, the 2 mM stock solution was diluted with Leibovitz L-15 medium to a concentration of 20 μM or 2 μM. An aliquot (250 μL) of the 20 μM and 2 μM test substance formulations was added to each hepatocyte incubation sample (250 μL), as appropriate, so that the final test substance concentration in the incubations was 10 μM or 1 μM, respectively, and incubations contained less than 1% (v/v) solvent.
Incubations were performed at ca. 37° C. in a shaking water bath (total incubation volume 0.5 mL). For 1 μM, incubations were terminated after 0, 5, 10, 20, 30, 60 and 120 minutes, by the addition of ice-cold acetonitrile (0.5 mL).
The samples were vortex mixed and centrifuged at ca 13,000 rpm for 10 minutes at room temperature. Following centrifugation, the protein-free supernatants were removed for analysis.
Blank control incubations were carried out with Leibovitz L-15 medium in place of the test substance. No cells control samples were performed with Leibovitz L-15 medium in place of hepatocytes. Aliquots of the blank control samples were taken at 120 minutes, while no cells control samples were taken at 0, 30 and 120 for 1 μM incubations and at 0 and 120 minutes for 10 μM incubations.
All 1 μM incubations were performed in duplicate, while all 10 μM incubations were performed in singlet. All samples were stored at −80° C. (nominal) prior to analysis.
Prior to sample analysis a 100 μL aliquot of each sample was evaporated to near dryness under a steady stream of nitrogen at room temperature, and subsequently reconstituted in 50 μL of mobile phase A (0.1% formic acid in water). Each sample (0, 30 and 120-minute, 10 μM) was analysed using accurate mass LC-MS to determine relative levels of parent compound at each time-point, and determine the profile of metabolites formed. Appropriate blank and control samples were also analysed. The 10 and 60-minute, 10 μM incubation samples were not analysed and were stored at −80° C. (nominal). […]

[3] = Pharmacokinetics of 5-MeO-DMT and bufotenine after single inhaled dose; format: in vivo, human; conditions: from 15 min onwards after 5-MeO-DMT inhalation; LLOQ
Experimental: Blood samples were obtained at 1; 2; 4; 7; 10; 15; 20; 30; 45 min and 1; 1.5; 2; 3; 4 hours after administration.
PK parameters were generated by algebraic analysis of the concentration versus time plots for each individual. The analysis was carried out using the software Phoenix WinNonlin 6.3.

Plasma binding of 5-MIAA = format: in vitro ADME; conditions: for fraction unbound: human, plasma
Experimental: as §1

[4] = 5 kg infant, three feeds of 250 ml

| Compound | Breastmilk concentration ([1]; 1.0 hrs after last dose) | Serum concentration ([1]; 1.0 hrs after last dose) | Breastmilk concentration ([1]; 2.5 hrs after last dose) | Serum concentration ([1]; 2.5 hrs after last dose) | Breastmilk concentration ([1]; 8.5 hrs after last dose) | Urine concentration ([1]; 8.5 hrs after last dose) | Breastmilk concentration ([1]; 24.0 hrs after last dose) | Serum concentration ([1]; 24.0 hrs after last dose) | Urine concentration ([1]; 24.0 hrs after last dose) | Breastmilk concentration ([1]; 120.0 hrs after last dose) | Serum concentration ([1]; 120.0 hrs after last dose) | Urine concentration ([1]; 120.0 hrs after last dose) | Breastmilk concentration ([1]; −24.0 hrs (pre-dosing)) | Serum concentration ([1]; −24.0 hrs (pre-dosing)) | Urine concentration ([1]; −24.0 hrs (pre-dosing)) | Relative Proportion of compounds identified (human hepatocytes) [%] | other results |
| --- | --- | --- | --- | --- | --- | --- | --- | --- | --- | --- | --- | --- | --- | --- | --- | --- | --- |
| 5-Methoxyindole acetic acid [5-MIAA] | 13945.2 pg/mL | 263.092 ng/mL | 13240.9 pg/mL | 101.9947 ng/mL | 359.4 pg/mL | 291651 pg/mL | 35.5 pg/mL | 0.2706 ng/mL | 18649 pg/mL | BLQ (Below limit of quantification. The lower limit of quantification is 25 pg/ml for both 5-MeO-DMT and 5-MIAA in both serum and breastmilk; it is 25 pg/ml in urine for 5-MeO-DMT and 250 pg/ml for 5-MIAA in urine.) | 0.0671 ng/mL | 9444 pg/mL | BLQ (Below limit of quantification. The lower limit of quantification is 25 pg/ml for both 5-MeO-DMT and 5-MIAA in both serum and breastmilk; it is 25 pg/ml in urine for 5-MeO-DMT and 250 pg/ml for 5-MIAA in urine.) | 0.051 ng/mL | 8113 pg/mL | – | Mean % Recovery (human plasma protein): 81.4%; Plasma binding (mean fraction unbound) (human plasma protein): ~50%; Unbound fraction (fu), Replicate 1 (human plasma protein): 0.499; Unbound fraction (fu), Replicate 2 (human plasma protein): 0.462; Unbound fraction (fu), Replicate 3 (human plasma protein): 0.544; Mean fu (human plasma protein; three replicates): 0.502; DID of 5-MIAA per kg [1, 4]: 0.001377 mg/kg/day; DID, total exposure of the infant to 5-MIAA [1, 4]: 0.006886 mg/day; Disappearance with stromal cell controls ([2]; 0-72 h): no disappearance; Remaining abundance after 72h ([2]; hepatocytes, 1 and 10 μM): 75-82%; In vitro intrinsic clearance ([2]; human hepatocytes, 1 μM): 0.15 μl/min/million cells |
| COc1ccc2[nH]cc(CC[N+](C)(C)[O-])c2c1 [5-MeO-DMT-N-oxide] | – | – | – | – | – | – | – | – | – | – | – | – | – | – | – | 1 | – |
| CN(C)CCc1c[nH]c2ccc(O)cc12 [Bufotenine] | BLQ (Below limit of quantification. The lower limit of quantification is 25 pg/ml for both 5-MeO-DMT and 5-MIAA in both serum and breastmilk; it is 25 pg/ml in urine for 5-MeO-DMT and 250 pg/ml for 5-MIAA in urine.) | BLQ (Below limit of quantification. The lower limit of quantification is 25 pg/ml for both 5-MeO-DMT and 5-MIAA in both serum and breastmilk; it is 25 pg/ml in urine for 5-MeO-DMT and 250 pg/ml for 5-MIAA in urine.) | BLQ (Below limit of quantification. The lower limit of quantification is 25 pg/ml for both 5-MeO-DMT and 5-MIAA in both serum and breastmilk; it is 25 pg/ml in urine for 5-MeO-DMT and 250 pg/ml for 5-MIAA in urine.) | BLQ (Below limit of quantification. The lower limit of quantification is 25 pg/ml for both 5-MeO-DMT and 5-MIAA in both serum and breastmilk; it is 25 pg/ml in urine for 5-MeO-DMT and 250 pg/ml for 5-MIAA in urine.) | BLQ (Below limit of quantification. The lower limit of quantification is 25 pg/ml for both 5-MeO-DMT and 5-MIAA in both serum and breastmilk; it is 25 pg/ml in urine for 5-MeO-DMT and 250 pg/ml for 5-MIAA in urine.) | BLQ (Below limit of quantification. The lower limit of quantification is 25 pg/ml for both 5-MeO-DMT and 5-MIAA in both serum and breastmilk; it is 25 pg/ml in urine for 5-MeO-DMT and 250 pg/ml for 5-MIAA in urine.) | BLQ (Below limit of quantification. The lower limit of quantification is 25 pg/ml for both 5-MeO-DMT and 5-MIAA in both serum and breastmilk; it is 25 pg/ml in urine for 5-MeO-DMT and 250 pg/ml for 5-MIAA in urine.) | BLQ (Below limit of quantification. The lower limit of quantification is 25 pg/ml for both 5-MeO-DMT and 5-MIAA in both serum and breastmilk; it is 25 pg/ml in urine for 5-MeO-DMT and 250 pg/ml for 5-MIAA in urine.) | BLQ (Below limit of quantification. The lower limit of quantification is 25 pg/ml for both 5-MeO-DMT and 5-MIAA in both serum and breastmilk; it is 25 pg/ml in urine for 5-MeO-DMT and 250 pg/ml for 5-MIAA in urine.) | BLQ (Below limit of quantification. The lower limit of quantification is 25 pg/ml for both 5-MeO-DMT and 5-MIAA in both serum and breastmilk; it is 25 pg/ml in urine for 5-MeO-DMT and 250 pg/ml for 5-MIAA in urine.) | BLQ (Below limit of quantification. The lower limit of quantification is 25 pg/ml for both 5-MeO-DMT and 5-MIAA in both serum and breastmilk; it is 25 pg/ml in urine for 5-MeO-DMT and 250 pg/ml for 5-MIAA in urine.) | BLQ (Below limit of quantification. The lower limit of quantification is 25 pg/ml for both 5-MeO-DMT and 5-MIAA in both serum and breastmilk; it is 25 pg/ml in urine for 5-MeO-DMT and 250 pg/ml for 5-MIAA in urine.) | BLQ (Below limit of quantification. The lower limit of quantification is 25 pg/ml for both 5-MeO-DMT and 5-MIAA in both serum and breastmilk; it is 25 pg/ml in urine for 5-MeO-DMT and 250 pg/ml for 5-MIAA in urine.) | BLQ (Below limit of quantification. The lower limit of quantification is 25 pg/ml for both 5-MeO-DMT and 5-MIAA in both serum and breastmilk; it is 25 pg/ml in urine for 5-MeO-DMT and 250 pg/ml for 5-MIAA in urine.) | BLQ (Below limit of quantification. The lower limit of quantification is 25 pg/ml for both 5-MeO-DMT and 5-MIAA in both serum and breastmilk; it is 25 pg/ml in urine for 5-MeO-DMT and 250 pg/ml for 5-MIAA in urine.) | 5 | Blood concentration of metabolite bufotenine [3]: < 0.025 ng/mL |
| CC(=O)CC(c1ccccc1)c1c(O)c2ccccc2oc1=O (stereo not shown) [Warfarin, reference compound] | – | – | – | – | – | – | – | – | – | – | – | – | – | – | – | – | recovery (Plasma binding of 5-MIAA; human plasma): 78.1%; fraction unbound (Plasma binding of 5-MIAA; read-out: Unbound fraction (fu), Replicate 1): 0.0418; fraction unbound (Plasma binding of 5-MIAA; read-out: Unbound fraction (fu), Replicate 2): 0.0356; fraction unbound (Plasma binding of 5-MIAA; read-out: Unbound fraction (fu), Replicate 3): 0.0358; fraction unbound (Plasma binding of 5-MIAA; three replicates, read-out: Mean fu): 0.0377 |
